{
  "source": "patent US20160256466A1",
  "about": "“PI3K INHIBITOR FOR TREATMENT OF RESPIRATORY DISEASE” (GLAXOSMITHKLINE INTELLECTUAL PROPERTY DEVELOPMENT LIMITED, priority 2013, published 2016)",
  "key": {"lung gene expression": {"tested_on": "lung gene expression", "assay": "Affymetrix GeneChip lung gene expression in S. Pneumoniae-infected mice", "type": "in vivo, C57BL/6 mice", "details": "0.2 mg/kg intranasal twice daily; lungs at various timepoints after S. Pneumoniae-infection; genes significantly altered (minimum 1.5 fold-change; p<0.05) compared to vehicle controls; n=6", "method": "(§1) Germ-free C57BL/6 male and female mice aged 10-12 weeks were intranasally administered with 0.2%Tween-80/saline vehicle or 0.2 mg/kg micronized 6-(1H-indol-4-yl)-4-(5-{[4-(1-methylethyl)-1-piperazinyl]methyl}-1,3-oxazol-2-yl)-1H-indazole hydrochloride in the same vehicle. Compound dosing was carried out twice daily for eleven days under anaesthesia using 3% isoflurane for induction and 2% isoflurane for maintenance. At the start of day two, and one hour after administering 6-(1H-indol-4-yl)-4-(5-{[4-(1-methylethyl)-1-piperazinyl]methyl}-1,3-oxazol-2-yl)-1H-indazole hydrochloride or vehicle, mice were anaesthetized with isoflurane as above and infected intranasally with 1×10^7 CFU of S. pneumoniae strain TIGR4. S. Pneumoniae was obtained and prepared as described previously (see, for example, Infect. Immun. December 2011; 79(12): 4965-4976) and given in an inoculum of 50 μl PBS per mouse. Mice were monitored three times daily and assessed using a defined mortality-endpoint, where mice displaying three or more of the limiting clinical signs stated in Home Office Project Licence PPL 70/7661 were culled.\nEach band corresponds to a single probe and intensity signifies fold change, as indicated in the legend."}, "[1]": {"tested_on": "S. pneumoniae strain TIGR4", "assay": "Streptococcus pneumoniae infection in mice, survival by defined mortality-endpoint", "type": "in vivo, C57BL/6 mice", "details": "0.2 mg/kg micronized, intranasal, twice daily for eleven days; infected intranasally with 1×10^7 CFU; compared to vehicle controls; n=60; Mantel-Cox test **p<0.005", "method": "as §1"}},
  "note": "Where a name gives a salt, the structure may show the parent alone.",
  "data": [
    {"smiles": "CC(C)N1CCN(Cc2cnc(-c3cc(-c4cccc5[nH]ccc45)cc4[nH]ncc34)o2)CC1", "note": "[6-(1H-Indol-4-yl)-4-(5-{[4-(1-methylethyl)-1-piperazinyl]methyl}-1,3-oxazol-2-yl)-1H-indazole hydrochloride]", "values": [
      {"measurement": "lung gene expression", "setting": "lung gene expression", "value": "altered lung gene expression"},
      {"measurement": "defined mortality-endpoint (percentage survival)", "setting": "[1]", "value": "reduced a defined mortality-endpoint"}
    ]}
  ]
}
